From patent publication US9988343B2, “Inhibitors of histone deacetylase” (Dana-Farber Cancer Institute, Inc., priority 2013, dated 2018)

Legend:
pSTAT3 (Tyr705) = assay: Immunoblot of STAT3 phosphorylation in MM cells; format: cell-based, human
Description: MM cells were harvested and lysed using sodium dodecyl sulfate-polyacrylamide gel electrophoresis (SDS-PAGE) sample buffer containing 60 mM Tris-HCl, pH 6.8, 2% SDS, 10% glycerol, 0.005% bromophenol blue, 5 mM ethylenediaminetetraacetic acid, 5 mM NaF, 2 mM […], 1 mM phenylmethylsulfonyl fluoride (PMSF), 5 μg/mL leupeptin, and 5 μg/mL aprotinin; and then heated at 100° C. for 5 min. After the determination of protein concentration using DC protein assay (Bio-Rad, Hercules, Calif.), β-mercaptoethanol (β-ME) was added to the whole-cell lysates to a 2% final β-ME concentration. The whole-cell lysates were subjected to SDS-PAGE, transferred to nitrocellulose membranes (Bio-Rad, Hercules, Calif.) or polyvinylidene fluoride membranes (Millipore, Billerica, Mass.), and immunoblotted with anti-histone H3, -HDAC1, -HDAC2, -HDAC3, -Acetyl-histone H2A (Lysine 5) (Ac-H2AK5), -Acetyl-histone H2B (lysine 5) (Ac-H2 BK5), -Acetyl-histone H3 (lysine 9) (Ac-H3K9), -Acetyl-histone H4 (lysine 8) (Ac-H4K8), -glyceraldehyde-3-phosphate dehydrogenase (GAPDH), -poly (ADP-ribose) polymerase (PARP), -caspase-3, -caspase-8, -caspase-9, -Signal transducers and activators of transcription 3 (STAT3), -phospho-STAT3 (pSTAT3) (tyrosine 705), -pSTAT3 (serine 727), -p21, -Janus kinase 2 (JAK2), -acetylated-Lysine (Ac-K), and anti-phosphorylated-tyrosine antibodies (Abs; Cell Signaling Technology, Beverly, Mass.).
MM.1S, U266, and INA6 cells were cultured with DMSO control or LBH589 (50 and 100 nM) for 8 h.
MM.1S cells pretreated with or without 50 nM LBH589 for 8 hours were then treated with IL-6 (10 ng/mL) or BMSC culture supernatants (#1 and #2) for 15 minutes. Whole cell lysates were subjected to immunoblotting with anti-pSTAT3 (Tyr705) and STAT3 Abs.
In addition, INA-6 cells were cultured with DMSO control, LBH589 (50 nM), TSA (1 μM) or SAHA (2 μM) for 8 hours. Whole cell lysates were subjected to immunoblotting with anti-pSTAT3 (Tyr705), STAT3, and GAPDH Abs.
Whole cell lysates were subjected to immunoblotting with anti-pSTAT3 (Tyr705), -STAT3, -pERK1/2 (Thr202/204), and -ERK1/2 Abs (FIG. 6G).
See, e.g., Hideshima et al. Blood. 2006, 107:4053-4062. Since bortezomib upregulates activated STAT3 in head and neck squamous cell carcinoma (see, e.g., Li et al. Mol Cancer Ther 2009. 8:2211-2220), experiments were conducted to test whether bortezomib enhances p-STAT3 in MM cells. RPMI8226 cells were infected with Luc, HDAC1 (sh1), HDAC2 (sh1) or HDAC3 (sh1) shRNAs and then treated with or without bortezomib (5 nM) for 6 hours. Whole cell lysates were subjected to immunoblotting with anti-STAT3, -pSTAT3 (Tyr705), -pERK1/2 (Thr202/204) and -ERK1/2 Abs.

MM.1S cells = assay: Immunoblot of histone and α-tubulin acetylation in MM.1S cells; format: cell-based, human; conditions: 12 h, Compound 10 10 and 20 μM
HDAC3 = HDAC3 (Homo sapiens, UniProt O15379); assay: HDAC3 inhibitory activity (IC50); format: biochemical; conditions: Table 2; read-out: HDAC3
Description: (§1) HDAC inhibitor compounds designed and synthesized in accordance with the present invention were tested for their inhibitor activity against several different HDAC isoforms.

HDAC2 = HDAC2 (Homo sapiens, UniProt Q92769); assay: HDAC2 inhibitory activity (IC50); format: biochemical; conditions: Table 2; read-out: HDAC2
Description: as §1

HDAC6 = molecular target: T1, HDAC6 (Homo sapiens, UniProt Q9UBN7); assay: HDAC6 inhibitory activity (IC50); format: biochemical; conditions: Table 2; read-out: HDAC6
T1 sequence (Q9UBN7 1-1215): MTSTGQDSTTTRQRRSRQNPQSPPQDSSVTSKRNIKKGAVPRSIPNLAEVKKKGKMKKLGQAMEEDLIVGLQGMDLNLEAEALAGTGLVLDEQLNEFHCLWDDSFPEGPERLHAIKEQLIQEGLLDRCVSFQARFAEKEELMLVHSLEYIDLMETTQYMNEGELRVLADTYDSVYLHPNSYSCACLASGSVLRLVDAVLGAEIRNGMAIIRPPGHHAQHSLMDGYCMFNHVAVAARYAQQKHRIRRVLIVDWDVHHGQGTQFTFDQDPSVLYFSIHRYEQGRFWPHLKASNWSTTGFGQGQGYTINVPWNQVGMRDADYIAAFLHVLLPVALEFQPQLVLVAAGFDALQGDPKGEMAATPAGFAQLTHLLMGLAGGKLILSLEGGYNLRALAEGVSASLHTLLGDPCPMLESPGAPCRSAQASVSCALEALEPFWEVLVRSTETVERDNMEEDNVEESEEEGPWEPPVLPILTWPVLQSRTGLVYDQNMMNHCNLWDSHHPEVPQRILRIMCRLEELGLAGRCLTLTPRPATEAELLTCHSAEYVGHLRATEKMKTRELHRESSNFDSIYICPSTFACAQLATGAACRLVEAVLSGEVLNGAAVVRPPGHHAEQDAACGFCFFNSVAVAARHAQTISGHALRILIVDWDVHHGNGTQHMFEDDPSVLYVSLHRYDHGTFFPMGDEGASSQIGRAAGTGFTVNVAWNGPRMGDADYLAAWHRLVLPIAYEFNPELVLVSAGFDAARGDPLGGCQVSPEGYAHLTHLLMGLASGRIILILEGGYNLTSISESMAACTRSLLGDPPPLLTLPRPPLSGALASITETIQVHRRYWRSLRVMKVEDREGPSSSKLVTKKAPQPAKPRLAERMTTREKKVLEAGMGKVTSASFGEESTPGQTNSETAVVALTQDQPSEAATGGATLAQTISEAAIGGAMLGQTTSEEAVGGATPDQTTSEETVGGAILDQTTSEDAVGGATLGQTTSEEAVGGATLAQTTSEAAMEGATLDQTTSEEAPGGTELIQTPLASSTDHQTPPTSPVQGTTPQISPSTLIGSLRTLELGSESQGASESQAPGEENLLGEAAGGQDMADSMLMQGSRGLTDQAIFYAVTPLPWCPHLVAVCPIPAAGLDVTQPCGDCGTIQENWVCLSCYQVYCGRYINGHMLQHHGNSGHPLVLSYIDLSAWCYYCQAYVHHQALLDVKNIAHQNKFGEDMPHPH
Description: as §1

HDAC1 = HDAC1 (Homo sapiens, UniProt Q13547); assay: HDAC1 inhibitory activity (IC50); format: biochemical; conditions: Table 2; read-out: HDAC1
Description: as §1

RPMI8226 cells = assay: Combination with bortezomib, MTT cytotoxicity, combination index; format: cell-based, human; conditions: RPMI8226, MTT, 24 h
Description: The combined effect of drugs was analyzed by isobologram analysis using the Compusyn software program (ComboSyn, Inc.); a combination index (CI)<1 is indicative of a synergistic effect.
All experiments were performed 3 times in quadruplicate. Data represent mean±SD (FIG. 7D).

MM cell lines = assay: Cell growth inhibition assay (MTT) in MM cell lines; format: cell-based, human; conditions: MM cell lines, 48 hours, MTT (FIG. 1A)
Description: To measure proliferation of MM cells, the rate of DNA synthesis was measured by ^3[H]-thymidine (Perkin-Elmer) uptake.
The growth inhibitory effect of Merck60 (HDACL, 2 inhibitor previously reported as compound #60 by Method et al. Bioorg. Med. Chem. Lett. 2008. 18(3):973-8) versus MS275 (HDAC1, 2, 3 inhibitor) was examined in MM cell lines using MTT assay. MM cells were cultured with Merck60 (left panel) or MS275 (right panel) for 48 hours. Cell growth was assessed by MTT assay. All experiments were performed 3 times in quadruplicate. Data represent mean±SD.
Cell growth was assessed by MTT assay. All experiments were performed 3 times in quadruplicate. Data represent mean±SD.

[1] = INA-6 cells, 8 hours, TSA 1 μM, SAHA 2 μM (FIG. 4C)

HDAC2, sequence (Q92769 whole entry): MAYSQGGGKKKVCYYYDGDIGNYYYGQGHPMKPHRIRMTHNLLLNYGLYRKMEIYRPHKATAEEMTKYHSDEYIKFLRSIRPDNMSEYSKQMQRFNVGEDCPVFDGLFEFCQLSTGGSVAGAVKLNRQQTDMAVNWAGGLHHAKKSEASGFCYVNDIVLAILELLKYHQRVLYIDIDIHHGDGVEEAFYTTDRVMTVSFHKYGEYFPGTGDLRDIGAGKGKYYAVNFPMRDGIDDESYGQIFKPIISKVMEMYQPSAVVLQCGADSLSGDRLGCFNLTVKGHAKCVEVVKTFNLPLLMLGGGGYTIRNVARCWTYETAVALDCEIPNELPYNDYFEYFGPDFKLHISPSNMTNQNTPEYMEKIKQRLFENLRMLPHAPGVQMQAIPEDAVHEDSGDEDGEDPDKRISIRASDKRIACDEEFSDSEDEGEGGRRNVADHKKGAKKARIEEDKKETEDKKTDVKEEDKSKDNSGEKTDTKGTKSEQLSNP
HDAC1, sequence (Q13547 whole entry): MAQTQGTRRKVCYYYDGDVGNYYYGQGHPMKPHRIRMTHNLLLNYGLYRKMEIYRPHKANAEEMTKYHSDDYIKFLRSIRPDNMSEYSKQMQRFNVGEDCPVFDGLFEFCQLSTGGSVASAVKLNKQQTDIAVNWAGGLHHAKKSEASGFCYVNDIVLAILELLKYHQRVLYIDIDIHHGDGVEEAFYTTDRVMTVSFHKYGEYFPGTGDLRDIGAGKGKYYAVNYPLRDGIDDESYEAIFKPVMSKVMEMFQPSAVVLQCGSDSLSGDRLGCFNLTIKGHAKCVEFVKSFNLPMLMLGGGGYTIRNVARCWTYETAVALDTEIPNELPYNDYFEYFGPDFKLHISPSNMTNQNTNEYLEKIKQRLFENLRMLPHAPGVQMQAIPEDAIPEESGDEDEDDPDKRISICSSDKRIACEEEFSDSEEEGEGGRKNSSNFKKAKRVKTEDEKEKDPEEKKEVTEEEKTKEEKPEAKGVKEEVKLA
HDAC3, sequence (O15379 whole entry): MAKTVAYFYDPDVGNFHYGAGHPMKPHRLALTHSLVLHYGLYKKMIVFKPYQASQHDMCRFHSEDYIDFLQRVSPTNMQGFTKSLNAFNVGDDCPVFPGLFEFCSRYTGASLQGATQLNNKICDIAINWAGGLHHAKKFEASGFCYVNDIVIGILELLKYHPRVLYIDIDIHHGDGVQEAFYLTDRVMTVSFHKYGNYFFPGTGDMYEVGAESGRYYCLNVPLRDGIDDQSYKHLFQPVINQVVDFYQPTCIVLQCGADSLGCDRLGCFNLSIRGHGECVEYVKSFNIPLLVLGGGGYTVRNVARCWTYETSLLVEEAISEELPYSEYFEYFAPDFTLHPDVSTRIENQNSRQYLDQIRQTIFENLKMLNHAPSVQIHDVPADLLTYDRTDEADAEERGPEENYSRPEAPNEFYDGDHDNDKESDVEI
HDAC3, sequence (Q9Y618 395-489 partner limits assumed): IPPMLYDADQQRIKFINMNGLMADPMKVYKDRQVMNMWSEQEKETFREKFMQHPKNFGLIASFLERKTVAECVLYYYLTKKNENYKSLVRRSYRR

IC50 (HDAC3)	IC50 (HDAC2)	IC50 (HDAC6)	IC50 (HDAC1)	SMILES	other results
–	–	–	–	Cc1[nH]c2ccccc2c1CCNCc1ccc(/C=C/C(=O)NO)cc1 [LBH589, reference compound]	P-STAT3 upregulated by IL-6 or BMSC culture supernatants (pSTAT3 (Tyr705); MM.1S, 50 nM pretreatment 8 hours, IL-6 10 ng/mL or supernatants 15 minutes (FIG. 4B)): blocked; p-STAT3 (pSTAT3 (Tyr705); MM.1S, U266, INA-6 cells, 50 and 100 nM, 8 h (FIG. 4A)): significantly inhibited; histone acetylation (MM.1S cells; LBH589 50 and 100 nM (FIG. 6F left)): significantly triggered both histone and α-tubulin acetylation; α-tubulin acetylation (biomarker of HDAC6 inhibition) (MM.1S cells; LBH589 50 and 100 nM (FIG. 6F right)): significantly triggered both histone and α-tubulin acetylation
2350 nM	5520 nM	> 100000 nM	13700 nM	O=C(Nc1ccc(F)cc1O)c1cccnc1 [Compound 15]	–
296 nM	2320 nM	> 100000 nM	4120 nM	Nc1cc(F)ccc1NC(=O)c1cnccn1 [Compound 14]	–
280 nM	2590 nM	> 100000 nM	3280 nM	Nc1ccccc1NC(=O)c1ccc(Cl)nc1 [Compound 9]	–
–	–	74300 nM	–	Nc1ccccc1NC(=O)c1cccnc1 [Compound 1]	–
–	–	–	–	O=C(CCCCCCC(=O)Nc1ccccc1)NO [SAHA, suberoylanilide hydroxamic acid]	p-STAT3 (pSTAT3 (Tyr705); [1]): downregulated p-STAT3
368 nM	2340 nM	> 100000 nM	2820 nM	Nc1ccccc1NC(=O)c1ccncc1 [Compound 2]	–
1960 nM	13400 nM	> 100000 nM	27000 nM	Nc1cc(F)ccc1NC(=O)c1cccnc1 [Compound 13]	–
1990 nM	1910 nM	> 100000 nM	5770 nM	O=C(Nc1ccccc1O)c1ccncc1 [Compound 6]	–
–	–	–	–	CC(/C=C/C(=O)NO)=C\[C@@H](C)C(=O)c1ccc(N(C)C)cc1 [TSA]	p-STAT3 (pSTAT3 (Tyr705); [1]): downregulated p-STAT3
346 nM	2360 nM	> 100000 nM	–	Nc1ccccc1NC(=O)c1ccccn1 [Compound 3]	–
70.2 nM	760 nM	> 100000 nM	1230 nM	CC(=O)Nc1ccc(C(=O)Nc2ccc(F)cc2N)cc1 [Compound 12]	–
169 nM	1210 nM	> 100000 nM	735 nM	Nc1ccccc1NC(=O)c1cnc(Nc2ccccc2)nc1 [Compound 8]	–
213 nM	1360 nM	> 100000 nM	1390 nM	Cc1ccc(C(=O)Nc2ccccc2N)cn1 [Compound 17]	–
–	–	–	–	CC(=O)Nc1ccc(C(=O)Nc2cc(-c3cccs3)ccc2N)cc1 [Merck60, 4-acetamido-N-(2-amino-5-(thiophen-2-yl)phenyl)benzamide]	CI (combination index) (RPMI8226 cells; HDAC inhibitor 1 μM + bortezomib 2 nM): 1.95; CI (combination index) (RPMI8226 cells; HDAC inhibitor 1 μM + bortezomib 3 nM): 1.06; CI (combination index) (RPMI8226 cells; HDAC inhibitor 1 μM + bortezomib 4 nM): 1.19; CI (combination index) (RPMI8226 cells; HDAC inhibitor 2 μM + bortezomib 2 nM): 1.54; CI (combination index) (RPMI8226 cells; HDAC inhibitor 2 μM + bortezomib 3 nM): 1.21; CI (combination index) (RPMI8226 cells; HDAC inhibitor 2 μM + bortezomib 4 nM): 1.34; CI (combination index) (RPMI8226 cells; HDAC inhibitor 3 μM + bortezomib 2 nM): 1.45; CI (combination index) (RPMI8226 cells; HDAC inhibitor 3 μM + bortezomib 3 nM): 1.4; CI (combination index) (RPMI8226 cells; HDAC inhibitor 3 μM + bortezomib 4 nM): 1.55; MM cell growth inhibition (MM cell lines): only a modest growth inhibition effect
843 nM	60.4 nM	> 100000 nM	< 10 nM	CC(=O)Nc1ccc(C(=O)Nc2cc(-c3ccccc3)ccc2N)cc1 [Compound 11]	–
3320 nM	3670 nM	> 100000 nM	10500 nM	O=C(Nc1ccccc1O)c1cccnc1 [Compound 5]	–
3620 nM	4110 nM	> 100000 nM	12400 nM	O=C(Nc1ccccc1O)c1ccccn1 [Compound 7]	–
